Here are results for one compound from patent publication US20230406865A1, “CRYSTAL FORM OF FREE BASE OF INHIBITOR CONTAINING BICYCLIC RING DERIVATIVE AND PREPARATION METHOD AND APPLICATION OF CRYSTAL FORM” (SHANGHAI HANSOH BIOMEDICAL CO., LTD., priority 2020, published 2023).

SMILES strings stand for the structures. Values after ≈ are worked out from the molar mass of the structure shown. Like-named read-outs stand apart in the source and are kept apart here.

Common to all, as to format: physicochemical
Series [1] in a line: Hygroscopicity (DVS) of crystal form I. The procedure:
The crystal form I of the free base of the compound was placed in the saturated water vapor at the […] relative humidity to make the compound reach dynamic equilibrium with the water vapor, and the percentage of hygroscopic weight gain of the compound was calculated after equilibrium.

Series [2] in a line: Solid stability of crystal form I (HPLC impurities). The settings on record: 14 days. The procedure: To investigate the physical and chemical stability of the compound under light 5000 lx, high temperature 60° C., high humidity 92.5% RH, high temperature and high humidity 50° C./75% RH conditions to provide a basis for the storage of the compound.
[…] 5000 lx, high temperature 60° C., high humidity 92.5% RH, high temperature and high humidity 50° C./75% RH, and the content was determined by HPLC with external standard method, and the changes of the related substances were calculated by the area normalization method for chromatographic peak.

Series [3] is described as follows: Thermodynamic solubility in different media at 37° C. The settings on record: thermodynamic from solid, read-out: Solubility of crystal form I. The procedure:
To compare the solubility of the crystal form I of the free base in pH 1-8 USP buffer, artificial simulated gastric fluid (FaSSGF), fasting artificial simulated intestinal fluid (FaSSIF), non-fasting artificial simulated intestinal fluid (FeSSIF) and pure water and other medium to provide a basis for the assessment of druggablitity.
About 1 mg of the crystal form I of the free base was mixed and suspended in different mediums for 4 hours.

Where [4] appears, read: High temperature and high humidity/50° C./75% RH.

With `C#C[C@@](C)(O)COc1cc(-c2ccc(N3CC4CC(C3)N4Cc3ccc(OC)nc3)nc2)c2c(C#N)cnn2c1` [crystal form I, 6-(((R)-2-hydroxy-2-methylbut-3-yn-1-yl)oxy)-4-(6-(6-((6-methoxypyridin-3-yl)methyl)-3,6-diazabicyclo[3.1.1]heptan-3-yl)pyridin-3-yl)pyrazolo[1,5-a]pyridine-3-carbonitrile], the hygroscopic weight gain result in series [1] (RH80%, 25° C.) was “about 0.43%”. In addition, in series [1] (RH80%, 25° C.), the hygroscopicity entry is “slightly hygroscopicity”. Moreover, in series [1] (two cycles at 0-95% RH), the “XRPD pattern / crystal form after moisture absorption and desorption” value is “the crystal form has not transformed”. The “Increase of total impurities %” value in series [2] (High humidity/92.5% RH), in series [2] (setting [4]), in series [2] (High temperature/60° C.) and in series [2] (Light/5000 lx) was less than 0.02% each time. Further, the “Maximum increase of single impurity %” value in series [2] (High humidity/92.5% RH) was less than 0.02%; in series [2] (setting [4]), 0.11%; in series [2] (High temperature/60° C.) it was 0.06%; in series [2] (Light/5000 lx), 0.18%. The solubility at 4 h was greater than 2000 µg/mL in series [3] (FaSSGF (artificial simulated gastric fluid), fassgf or other biorelevant, FaSSGF, 37° C.); 1 µg/mL (≈ 1.87 µM) in series [3] (FaSSIF (fasting artificial simulated intestinal fluid), FaSSIF, 37° C.); 90 µg/mL (≈ 168 µM) in series [3] (FeSSIF (non-fasting artificial simulated intestinal fluid), FeSSIF, 37° C.); greater than 2000 µg/mL in series [3] (USP buffer pH 1, simulated gastric fluid, pH 1, 37° C.); greater than 2000 µg/mL in series [3] (USP buffer pH 2, simulated gastric fluid, pH 2, 37° C.); 710 µg/mL (≈ 1330 µM) in series [3] (USP buffer pH 3, aqueous buffer, pH 3, 37° C.). The solubility at 4 h was 370 µg/mL (≈ 691 µM) in series [3] (USP buffer pH 4, aqueous buffer, pH 4, 37° C.); 20 µg/mL (≈ 37.3 µM) in series [3] (USP buffer pH 5, aqueous buffer, pH 5, 37° C.); 1 µg/mL (≈ 1.87 µM) in series [3] (USP buffer pH 6, aqueous buffer, pH 6, 37° C.).
